Bounds are passed on as bounds.

The values that follow come from patent US10800741B2 (ANCUREALL PHARMACEUTICAL (SHANGHAI) CO., LTD., priority 2017, dated 2020).

Assay type in all cases: cell-based, Human
One experiment has as its system H1581 (FGFR1 amp). Description: In vitro growth inhibition of H1581 tumor cells (MTT/CCK8). The settings on record: Homo sapiens, NCI-H1581; in vitro growth inhibition (or induction of apoptosis), cells cultured 3 to 5 days, MTT (CCK8); read-out: IC50 H1581 (FGFR1 amp).
A further experiment relates to KATO III (FGFR2 amp). Put plainly: In vitro growth inhibition of KATO III tumor cells (MTT/CCK8). The settings on record: Homo sapiens, KATO III; in vitro growth inhibition (or induction of apoptosis), cells cultured 3 to 5 days, MTT (CCK8); read-out: IC50 KATO III (FGFR2 amp).
Another experiment deals with Hep3B2 (FGFR3/4+++). Description: In vitro growth inhibition of Hep3B2 tumor cells (MTT/CCK8). The note with it: Homo sapiens, Hep3B; in vitro growth inhibition (or induction of apoptosis), cells cultured 3 to 5 days, MTT (CCK8); read-out: IC50 Hep3B2 (FGFR3/4+++).
Another experiment relates to MOLM-13 (FLT3-ITD). Description: In vitro growth inhibition of MOLM-13 tumor cells (MTT/CCK8). The settings on record: Homo sapiens, MOLM-13; in vitro growth inhibition (or induction of apoptosis), cells cultured 3 to 5 days, MTT (CCK8); read-out: IC50 MOLM-13 (FLT3-ITD).
For the next experiment, the system named is KCL-22 (BCR-ABL). Put plainly: In vitro growth inhibition of KCL-22 tumor cells (MTT/CCK8). The settings on record: Homo sapiens, KCL-22; in vitro growth inhibition (or induction of apoptosis), cells cultured 3 to 5 days, MTT (CCK8); read-out: IC50 KCL-22 (BCR-ABL).
For the next experiment, the system named is Kasumi-1 (KIT N822K). Put plainly: In vitro growth inhibition of Kasumi-1 tumor cells (MTT/CCK8). The note with it: Homo sapiens, Kasumi 1; in vitro growth inhibition (or induction of apoptosis), cells cultured 3 to 5 days, MTT (CCK8); read-out: IC50 Kasumi-1 (KIT N822K).
For a further experiment, the system named is H1703 (PDGFRa amp). Put plainly: In vitro growth inhibition of H1703 tumor cells (MTT/CCK8). The settings on record: Homo sapiens, NCI-H1703; in vitro growth inhibition (or induction of apoptosis), cells cultured 3 to 5 days, MTT (CCK8); read-out: IC50 H1703 (PDGFRa amp).
The subject of the next experiment is Karpas 299 (NPM-ALK). Description: In vitro growth inhibition of Karpas 299 tumor cells (MTT/CCK8). The note with it: Homo sapiens, KARPAS-299; in vitro growth inhibition (or induction of apoptosis), cells cultured 3 to 5 days, MTT (CCK8); read-out: IC50 Karpas 299 (NPM-ALK).

Take `COc1cc2nccc(Oc3ccc(NC(=O)Nc4cc(C(C)(C)C)on4)c(N4CCN(C)CC4)c3)c2cc1C(N)=O` [Compound 10, 4-[4-[3-(5-tert-butyl-isoxazol-3-yl)-ureido]-3-(4-methyl-piperazin-1-yl)-phenoxy]-7-methoxyquinolin-6-carboxamide]: the IC50 was > 1000 nM in the experiment with H1581 (FGFR1 amp); > 1000 nM with KATO III (FGFR2 amp); > 1000 nM in the experiment on Hep3B2 (FGFR3/4+++); > 1000 nM in the experiment on MOLM-13 (FLT3-ITD); > 1000 nM with KCL-22 (BCR-ABL); 71.9 nM in the experiment with Kasumi-1 (KIT N822K). Also, the IC50 with H1703 (PDGFRa amp) and in the experiment with Karpas 299 (NPM-ALK) was > 1000 nM throughout.

As for `COc1cc2nccc(Nc3ccc(NC(=O)Nc4cc(C(C)(C)C)on4)cc3Cl)c2cc1C(N)=O` [Compound 100, 4-{4-[3-(5-tert-butyl-isoxazol-3-yl)-ureido]-2-chloro-phenylamino}-7-methoxy-quinolin-6-carboxamide], the IC50 is 271 nM in the experiment with H1581 (FGFR1 amp); 49.7 nM in the experiment with KATO III (FGFR2 amp); > 1000 nM in the experiment with Hep3B2 (FGFR3/4+++); 1.01 nM in the experiment on MOLM-13 (FLT3-ITD); 694 nM in the experiment on KCL-22 (BCR-ABL); > 1000 nM with Kasumi-1 (KIT N822K). For the same compound, the IC50 in the experiment with H1703 (PDGFRa amp) stood at 202 nM; in the experiment with Karpas 299 (NPM-ALK), 838 nM.

`CC(C)(C)c1cc(NC(=O)Nc2ccc(Oc3ccnc4cc(OCCN5CCOCC5)c(C(N)=O)cc34)c(Cl)c2Cl)[nH]n1` [Compound 94, 4-{4-[3-(5-tert-butyl-2H-pyrazol-3-yl)-ureido]-2,3-dichloro-phenoxy}-7-(2-morpholin-4-yl-ethoxy)-quinolin-6-carboxamide]: the IC50 in the experiment with H1581 (FGFR1 amp) worked out at 4.17 nM; in the experiment with KATO III (FGFR2 amp), 0.89 nM; with Hep3B2 (FGFR3/4+++), 10.6 nM; in the experiment on MOLM-13 (FLT3-ITD), 1.61 nM; in the experiment with KCL-22 (BCR-ABL), 3.66 nM; in the experiment on Kasumi-1 (KIT N822K), 4.22 nM. Also, the IC50 was 5.03 nM with H1703 (PDGFRa amp) and 65 nM with Karpas 299 (NPM-ALK).

On to `CC(C)(C)c1cc(NC(=O)Nc2ccc(Oc3cc(C(F)(F)F)nc4ccccc34)cc2Cl)no1` [Compound 115, 1-(5-tert-butyl-isoxazol-3-yl)-3-[2-chloro-4-(2-trifluoromethyl-quinolin-4-yloxy)-phenyl]-urea], for which the IC50 with H1581 (FGFR1 amp) is > 1000 nM; in the experiment on KATO III (FGFR2 amp) it was 746 nM; with Hep3B2 (FGFR3/4+++) it was > 1000 nM; in the experiment on MOLM-13 (FLT3-ITD), > 1000 nM; with KCL-22 (BCR-ABL) it was > 5000 nM; with Kasumi-1 (KIT N822K), > 1000 nM. The IC50 with H1703 (PDGFRa amp) and in the experiment with Karpas 299 (NPM-ALK) was > 1000 nM each time.

`COc1cc2nccc(Oc3ccc(NC(=O)Nc4cc(C(C)(C)C)n[nH]4)c(Cl)c3)c2cc1NC(C)=O` [Compound 63, N-(4-{4-[3-(5-tert-butyl-2H-pyrazol-3-yl)-ureido]-3-chloro-phenoxy}-7-methoxyquinolin-6-yl)-acetamide]: the IC50 in the experiment on H1581 (FGFR1 amp) was 4.26 nM; in the experiment with KATO III (FGFR2 amp), 0.31 nM; in the experiment on Hep3B2 (FGFR3/4+++), 15.9 nM; in the experiment with MOLM-13 (FLT3-ITD), 3.12 nM; in the experiment with KCL-22 (BCR-ABL) it was 4.68 nM; with Kasumi-1 (KIT N822K) it was 8.81 nM. Also, the IC50 was 12 nM in the experiment with H1703 (PDGFRa amp) and 113 nM in the experiment on Karpas 299 (NPM-ALK).

As for `COCCOc1cc2nccc(Oc3ccc(NC(=O)Nc4cc(C(C)(C)C)nn4C)c(Cl)c3)c2cc1C(N)=O` [Compound 44, 4-{4-[3-(5-tert-butyl-2-methyl-2H-pyrazol-3-yl)-ureido]-3-chloro-phenoxy}-7-(2-methoxy-ethoxy)-quinolin-6-carboxamide], the IC50 in the experiment on H1581 (FGFR1 amp) is 1.61 nM; in the experiment on KATO III (FGFR2 amp) it was 1.08 nM; with Hep3B2 (FGFR3/4+++), 11.3 nM; in the experiment with MOLM-13 (FLT3-ITD) it was 3.81 nM; in the experiment with KCL-22 (BCR-ABL) it was 2.21 nM; in the experiment with Kasumi-1 (KIT N822K), 7.94 nM. In addition, the IC50 was found to be 6.49 nM with H1703 (PDGFRa amp) and 298 nM in the experiment on Karpas 299 (NPM-ALK).

Consider `COc1cc2nccc(Oc3ccc(NC(=O)Nc4cc(C(C)(C)C)n[nH]4)c(Cl)c3)c2cc1C#N` [Compound 67, 1-(5-tert-butyl-2H-pyrazol-3-yl)-3-[2-chloro-4-(6-cyano-7-methoxy-quinolin-4-yloxy)-phenyl]-urea], for which the IC50 in the experiment on H1581 (FGFR1 amp) worked out at 164 nM; in the experiment with KATO III (FGFR2 amp), 6.83 nM; in the experiment with Hep3B2 (FGFR3/4+++), 270 nM; in the experiment on MOLM-13 (FLT3-ITD), 72.2 nM; in the experiment on KCL-22 (BCR-ABL) it was 19.2 nM; with Kasumi-1 (KIT N822K), 24.8 nM. Moreover, the IC50 in the experiment with H1703 (PDGFRa amp) came out at 436 nM; with Karpas 299 (NPM-ALK), 863 nM.
